Test system: 349418-098-R tumor spheroid viability
Test: Anticancer human tumor 349418-098-R patient-derived lung adenocarcinoma cell line growth inhibition
Conditions: spheroids with HUVEC and MSC; for IC50: curve of first compound; for viability, T/C: stronger effect = lower value
Outline: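 Complex spheroids of malignant cells with endothelial cells and mesenchymal stem cells; agents alone or combined, from near clinical Cmax (or 10 microM if unknown) down in half-log steps, 0.25% DMSO final.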

[1] = second compound 30 pM, first compound 0.00949 µM
[2] = second compound 30 pM, first compound 0.03 µM
[3] = second compound 30 pM, first compound 0.0949 µM
[4] = second compound 30 pM, first compound 0.3 µM
[5] = second compound 30 pM, first compound 0.949 µM
[6] = second compound 30 pM, first compound 3 µM
[7] = second compound 94.9 pM, first compound 0.00949 µM
[8] = second compound 94.9 pM, first compound 0.03 µM
[9] = second compound 94.9 pM, first compound 0.0949 µM
[10] = second compound 94.9 pM, first compound 0.3 µM
[11] = second compound 94.9 pM, first compound 0.949 µM
[12] = second compound 94.9 pM, first compound 3 µM
[13] = second compound 0.0003 µM, first compound 0.00949 µM
[14] = second compound 0.0003 µM, first compound 0.03 µM
[15] = second compound 0.0003 µM, first compound 0.0949 µM
[16] = second compound 0.0003 µM, first compound 0.3 µM
[17] = second compound 0.0003 µM, first compound 0.949 µM
[18] = second compound 0.0003 µM, first compound 3 µM
[19] = second compound 0.000949 µM, first compound 0.00949 µM
[20] = second compound 0.000949 µM, first compound 0.03 µM
[21] = second compound 0.000949 µM, first compound 0.0949 µM
[22] = second compound 0.000949 µM, first compound 0.3 µM
[23] = second compound 0.000949 µM, first compound 0.949 µM
[24] = second compound 0.000949 µM, first compound 3 µM
[25] = second compound 0.003 µM, first compound 0.00949 µM
[26] = second compound 0.003 µM, first compound 0.03 µM
[27] = second compound 0.003 µM, first compound 0.0949 µM
[28] = second compound 0.003 µM, first compound 0.3 µM
[29] = second compound 0.003 µM, first compound 0.949 µM
[30] = second compound 0.003 µM, first compound 3 µM
[31] = second compound 0.003 µM, first compound 0.0316 µM
[32] = second compound 0.003 µM, first compound 0.1 µM
[33] = second compound 0.003 µM, first compound 0.316 µM
[34] = second compound 0.003 µM, first compound 1 µM
[35] = second compound 0.003 µM, first compound 3.16 µM
[36] = second compound 0.003 µM, first compound 10 µM
[37] = second compound 0.00949 µM, first compound 0.0316 µM
[38] = second compound 0.00949 µM, first compound 0.1 µM
[39] = second compound 0.00949 µM, first compound 0.316 µM
[40] = second compound 0.00949 µM, first compound 1 µM
[41] = second compound 0.00949 µM, first compound 3.16 µM
[42] = second compound 0.00949 µM, first compound 10 µM
[43] = second compound 0.03 µM, first compound 0.0316 µM
[44] = second compound 0.03 µM, first compound 0.1 µM
[45] = second compound 0.03 µM, first compound 0.316 µM
[46] = second compound 0.03 µM, first compound 1 µM
[47] = second compound 0.03 µM, first compound 3.16 µM
[48] = second compound 0.03 µM, first compound 10 µM
[49] = second compound 0.0949 µM, first compound 0.0316 µM
[50] = second compound 0.0949 µM, first compound 0.1 µM
[51] = second compound 0.0949 µM, first compound 0.316 µM
[52] = second compound 0.0949 µM, first compound 1 µM
[53] = second compound 0.0949 µM, first compound 3.16 µM
[54] = second compound 0.0949 µM, first compound 10 µM
[55] = second compound 0.3 µM, first compound 0.0316 µM
[56] = second compound 0.3 µM, first compound 0.1 µM
[57] = second compound 0.3 µM, first compound 0.316 µM
[58] = second compound 0.3 µM, first compound 1 µM
[59] = second compound 0.3 µM, first compound 3.16 µM
[60] = second compound 0.3 µM, first compound 10 µM
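Further: spheroids exposed to compound for 7 days before measurement.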
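Wherever viability, T/C is given: percent of vehicle control viability with 100% = DMSO-treated spheroids.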

Compound: Cn1ncnc1[C@H]1c2n[nH]c(=O)c3cc(F)cc(c23)N[C@@H]1c1ccc(F)cc1 + COc1cc2c(cc1O)CCNC21CSC2c3c(OC(C)=O)c(C)c4c(c3C(COC1=O)N1C(O)C3Cc5cc(C)c(OC)c(O)c5C(C21)N3C)OCO4
- IC50 (second compound 30 pM): 1640 nM
- IC50 (second compound 94.9 pM): 956 nM
- IC50 (second compound 0.0003 µM): 107 nM
- IC50 (second compound 0.000949 µM): < 9.49 nM
- IC50 (second compound 0.003 µM): < 9.49 nM
- viability, T/C [1]: 87.2%
- viability, T/C [2]: 97.2%
- viability, T/C [3]: 88.8%
- viability, T/C [4]: 93.5%
- viability, T/C [5]: 86.8%
- viability, T/C [6]: 9.75%
- viability, T/C [7]: 93.2%
- viability, T/C [8]: 89.6%
- viability, T/C [9]: 85.6%
- viability, T/C [10]: 94.8%
- viability, T/C [11]: 50.3%
- viability, T/C [12]: 4.92%
- viability, T/C [13]: 66.4%
- viability, T/C [14]: 68.5%
- viability, T/C [15]: 47.8%
- viability, T/C [16]: 34.9%
- viability, T/C [17]: 11.5%
- viability, T/C [18]: 2.39%
- viability, T/C [19]: 0.87%
- viability, T/C [20]: 0.43%
- viability, T/C [21]: 0.53%
- viability, T/C [22]: 0.21%
- viability, T/C [23]: 0.13%
- viability, T/C [24]: 0.19%
- viability, T/C [25]: 1.57%
- viability, T/C [26]: 1.54%
- viability, T/C [27]: 1.41%
- viability, T/C [28]: 1.35%
- viability, T/C [29]: 2.21%
- viability, T/C [30]: 3.32%

Compound: CC1COCCN1c1cc(-c2ccnn2C)c2ccnc(-c3ccn[nH]3)c2n1 (stereo not given) + CC[C@@]1(O)C(=O)OCc2c1cc1n(c2=O)Cc2cc3c(CN(C)C)c(O)ccc3nc2-1
- IC50 (second compound 0.003 µM): 79 nM
- IC50 (second compound 0.00949 µM): < 31.6 nM
- IC50 (second compound 0.03 µM): < 31.6 nM
- IC50 (second compound 0.0949 µM): < 31.6 nM
- IC50 (second compound 0.3 µM): < 31.6 nM
- viability, T/C [31]: 107%
- viability, T/C [32]: 35.1%
- viability, T/C [33]: 16%
- viability, T/C [34]: 15%
- viability, T/C [35]: 15.6%
- viability, T/C [36]: 14%
- viability, T/C [37]: 42.4%
- viability, T/C [38]: 20.4%
- viability, T/C [39]: 13.6%
- viability, T/C [40]: 16.2%
- viability, T/C [41]: 12.8%
- viability, T/C [42]: 12%
- viability, T/C [43]: 13.5%
- viability, T/C [44]: 11.5%
- viability, T/C [45]: 9.56%
- viability, T/C [46]: 11.4%
- viability, T/C [47]: 11.6%
- viability, T/C [48]: 10.8%
- viability, T/C [49]: 5.41%
- viability, T/C [50]: 6.47%
- viability, T/C [51]: 5.98%
- viability, T/C [52]: 6.27%
- viability, T/C [53]: 7.68%
- viability, T/C [54]: 8.39%
- viability, T/C [55]: 3.23%
- viability, T/C [56]: 2.54%
- viability, T/C [57]: 2.76%
- viability, T/C [58]: 3.58%
- viability, T/C [59]: 4.37%
- viability, T/C [60]: 5.17%

Compound: CNCc1ccc(-c2cc(-c3nc(-c4ccc(S(=O)(=O)C(C)C)cc4)cnc3N)on2)cc1 + COc1cc2c(cc1O)CCNC21CSC2c3c(OC(C)=O)c(C)c4c(c3C(COC1=O)N1C(O)C3Cc5cc(C)c(OC)c(O)c5C(C21)N3C)OCO4
- IC50 (second compound 30 pM): 448 nM
- IC50 (second compound 94.9 pM): 202 nM
- IC50 (second compound 0.0003 µM): 162 nM
- IC50 (second compound 0.000949 µM): < 9.49 nM
- IC50 (second compound 0.003 µM): < 9.49 nM
- viability, T/C [1]: 105%
- viability, T/C [2]: 91.3%
- viability, T/C [3]: 87.8%
- viability, T/C [4]: 69.6%
- viability, T/C [5]: 14.5%
- viability, T/C [6]: 5.77%
- viability, T/C [7]: 97%
- viability, T/C [8]: 97.5%
- viability, T/C [9]: 85.4%
- viability, T/C [10]: 31.1%
- viability, T/C [11]: 10.2%
- viability, T/C [12]: 3.32%
- viability, T/C [13]: 91.6%
- viability, T/C [14]: 93.5%
- viability, T/C [15]: 79.5%
- viability, T/C [16]: 15.6%
- viability, T/C [17]: 5.43%
- viability, T/C [18]: 2.26%
- viability, T/C [19]: 0.44%
- viability, T/C [20]: 0.78%
- viability, T/C [21]: 0.51%
- viability, T/C [22]: 0.68%
- viability, T/C [23]: 0.41%
- viability, T/C [24]: 0.11%
- viability, T/C [25]: 1.46%
- viability, T/C [26]: 1.27%
- viability, T/C [27]: 0.93%
- viability, T/C [28]: 1.07%
- viability, T/C [29]: 1.05%
- viability, T/C [30]: 0.22%

Compound: COc1ccc([C@@H](O)c2cc(-c3ncnc4cc(N5CCOCC5)ccc34)c(F)cc2Cl)nn1 + CC[C@@]1(O)C(=O)OCc2c1cc1n(c2=O)Cc2cc3c(CN(C)C)c(O)ccc3nc2-1
- IC50 (second compound 0.003 µM): 7870 nM
- IC50 (second compound 0.00949 µM): 6180 nM
- IC50 (second compound 0.03 µM): 679 nM
- IC50 (second compound 0.0949 µM): < 31.6 nM
- IC50 (second compound 0.3 µM): < 31.6 nM
- viability, T/C [31]: 103%
- viability, T/C [32]: 107%
- viability, T/C [33]: 106%
- viability, T/C [34]: 106%
- viability, T/C [35]: 89.2%
- viability, T/C [36]: 39%
- viability, T/C [37]: 90.1%
- viability, T/C [38]: 102%
- viability, T/C [39]: 106%
- viability, T/C [40]: 102%
- viability, T/C [41]: 82.8%
- viability, T/C [42]: 26.5%
- viability, T/C [43]: 69.8%
- viability, T/C [44]: 78.5%
- viability, T/C [45]: 60.4%
- viability, T/C [46]: 43.9%
- viability, T/C [47]: 26.1%
- viability, T/C [48]: 18.9%
- viability, T/C [49]: 18.4%
- viability, T/C [50]: 11.6%
- viability, T/C [51]: 14.2%
- viability, T/C [52]: 13.7%
- viability, T/C [53]: 11.4%
- viability, T/C [54]: 9.78%
- viability, T/C [55]: 4.47%
- viability, T/C [56]: 3.97%
- viability, T/C [57]: 4.59%
- viability, T/C [58]: 4.78%
- viability, T/C [59]: 4.77%
- viability, T/C [60]: 3.94%
